Values quoted from earlier work in patent US20240409577A1, “FORMATION OF AMIDINES AND INTRAMOLECULAR REACTION THEREOF” (priority 2023, published 2024).

Details: acid used for the imidazolone transformation

Q: Which pKa does the source give for `OC(C(F)(F)F)C(F)(F)F` [HFIP, hexafluoroisopropanol] here?
A: 8.3
